Reference: patent US11970498B2, “CDK2 inhibitors” (BLUEPRINT MEDICINES CORPORATION, priority 2021, dated 2024)

Experiments:
CDK2/Cyclin E = CDK2/Cyclin E (Homo sapiens, UniProt P24941); experiment: CDK2/Cyclin E biochemical phosphorylation assay (Caliper mobility shift); settings: apparent IC50; 1.0 mM ATP or ATP Km; 1.25 nM enzyme; 25° C.; read-out: CDK2/cyclin E1 IC50
Summary of the method: (§1)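 7.5 µM 5-FAM-QSPKKG-CONH2 peptide phosphorylated by CDK2/Cyclin E (1.25 nM) or GST-CDK1/Cyclin B1 (1.5 nM) at 1.0 mM ATP or ATP Km, in HEPES pH 7.5, MgCl2, Brij-35, DTT, 1% DMSO, 25 °C to 10–20% conversion. EDTA stop; Caliper mobility-shift readout; apparent IC50 from percent activity vs log concentration.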

CDK1/Cyclin B1, GST-tag = molecular target: T1, CDK1/Cyclin B1, GST-tag (Homo sapiens, UniProt P06493); experiment: CDK1/Cyclin B1 biochemical phosphorylation assay (Caliper mobility shift); settings: apparent IC50; 1.0 mM ATP or ATP Km; 1.5 nM enzyme; 25° C.
T1 construct: GST
Summary of the method: as §1

T1 sequence (P06493 whole entry): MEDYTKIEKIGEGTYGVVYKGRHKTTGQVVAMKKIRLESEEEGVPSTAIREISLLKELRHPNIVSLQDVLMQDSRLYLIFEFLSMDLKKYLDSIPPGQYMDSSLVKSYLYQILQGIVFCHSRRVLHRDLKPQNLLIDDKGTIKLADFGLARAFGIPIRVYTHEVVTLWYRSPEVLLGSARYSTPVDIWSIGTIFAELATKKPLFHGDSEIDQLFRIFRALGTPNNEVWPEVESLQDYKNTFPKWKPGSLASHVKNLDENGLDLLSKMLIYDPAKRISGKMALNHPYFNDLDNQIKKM
T1 sequence (P14635 whole entry partner): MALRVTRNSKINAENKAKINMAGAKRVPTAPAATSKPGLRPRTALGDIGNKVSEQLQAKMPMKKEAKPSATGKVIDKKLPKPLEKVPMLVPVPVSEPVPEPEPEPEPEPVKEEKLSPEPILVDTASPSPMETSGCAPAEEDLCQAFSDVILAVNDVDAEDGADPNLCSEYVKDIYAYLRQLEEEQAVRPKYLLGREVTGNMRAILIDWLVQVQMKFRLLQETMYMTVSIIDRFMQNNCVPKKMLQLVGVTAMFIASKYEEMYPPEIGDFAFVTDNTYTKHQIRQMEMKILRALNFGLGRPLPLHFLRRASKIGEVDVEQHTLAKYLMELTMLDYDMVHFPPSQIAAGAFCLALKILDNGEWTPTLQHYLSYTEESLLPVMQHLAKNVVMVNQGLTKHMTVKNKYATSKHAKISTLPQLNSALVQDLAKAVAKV

| IC50 (CDK2/Cyclin E) [nM] | IC50 (CDK1/Cyclin B1, GST-tag) [nM] | Structure (SMILES) |
| --- | --- | --- |
| 20 to 30 | ≥ 500 | C[C@@H](C1CCOCC1)n1nc(C#N)c2ncc(Nc3cc(OC(F)F)[nH]n3)nc21 [Example 64, (S)-6-((5-(difluoromethoxy)-1H-pyrazol-3-yl)amino)-1-(1-(tetrahydro-2H-pyran-4-yl)ethyl)-1H-pyrazolo[3,4-b]pyrazine-3-carbonitrile] |
| ≤ 10 | < 100 | C[C@@H]1C[C@H](Cn2ncc3ncc(Nc4cc(OC(F)F)[nH]n4)nc32)C[C@H](C)O1 [Example 65, N-(5-(difluoromethoxy)-1H-pyrazol-3-yl)-1-(((2R,4r,6S)-2,6-dimethyltetrahydro-2Hpyran-4-yl)methyl)-1Hpyrazolo[3,4-b]pyrazin-6-amine] |
| ≤ 10 | < 100 | COc1cc(Nc2cnc3cnn(C[C@H]4C[C@@H](C)O[C@@H](C)C4)c3n2)n[nH]1 [Example 66, 1-(((2R,4r,6S)-2,6-dimethyltetrahydro-2H-pyran-4-yl)methyl)-N-(5-methoxy-1H-pyrazol-3-yl)-1H-pyrazolo[3,4-b]pyrazin-6-amine] |
| 10 to 20 | ≥ 500 | COc1cc(Nc2cnc3cnn([C@@H](C)C4CC4)c3n2)n[nH]1 [Example 68, (S)-1-(1-cyclopropylethyl)-N-(5-methoxy-1H-pyrazol-3-yl)-1H-pyrazolo[3,4-b]pyrazin-6-amine] |
| 30 to 100 | ≥ 500 | COc1cc(Nc2cnc3cnn(CC4CC4)c3n2)n[nH]1 [Example 69, 1-(cyclopropylmethyl)-N-(5-methoxy-1H-pyrazol-3-yl)-1H-pyrazolo[3,4-b]pyrazin-6-amine] |
| ≤ 10 | 100 to 500 | COc1cc(Nc2cnc3cnn(C[C@H]4CCOC4)c3n2)n[nH]1 [Example 70, (R)-N-(5-methoxy-1H-pyrazol-3-yl)-1-((tetrahydrofuran-3-yl)methyl)-1H-pyrazolo[3,4-b]pyrazin-6-amine] |
| 10 to 20 | ≥ 500 | COc1cc(Nc2cnc3cnn([C@H](C)C4CC4)c3n2)n[nH]1 [Example 73, (R)-1-(1-cyclopropylethyl)-N-(5-methoxy-1H-pyrazol-3-yl)-1H-pyrazolo[3,4-b]pyrazin-6-amine] |
| 20 to 30 | ≥ 500 | COc1cc(Nc2cnc3cnn(Cc4cncs4)c3n2)n[nH]1 [Example 75, N-(5-methoxy-1H-pyrazol-3-yl)-1-(thiazol-5-ylmethyl)-1H-pyrazolo[3,4-b]pyrazin-6-amine] |
| ≤ 10 | ≥ 500 | FC(F)Oc1cc(Nc2cnc3cnn(C[C@H]4COCCO4)c3n2)n[nH]1 [Example 86, (S)-1-((1,4-dioxan-2-yl)methyl)-N-(5-(difluoromethoxy)-1H-pyrazol-3-yl)-1H-pyrazolo[3,4-b]pyrazin-6-amine] |
| ≤ 10 | 100 to 500 | Cc1nn(CC2CCOCC2)c2nc(Nc3cc(OC(F)F)[nH]n3)cnc12 [Example 87, N-(5-(difluoromethoxy)-1H-pyrazol-3-yl)-3-methyl-1-((tetrahydro-2H-pyran-4-yl)methyl)-1H-pyrazolo[3,4-b]pyrazin-6-amine] |

Further lines, the molecule ahead of its results:

| Structure (SMILES) | IC50 (CDK2/Cyclin E) [nM] | IC50 (CDK1/Cyclin B1, GST-tag) [nM] |
| --- | --- | --- |
| COc1cc(Nc2cnc3cnn([C@@H](C)c4cccnc4)c3n2)n[nH]1 [Example 67, (S)-N-(5-methoxy-1H-pyrazol-3-yl)-1-(1-(pyridin-3-yl)ethyl)-1H-pyrazolo[3,4-b]pyrazin-6-amine] | ≤ 10 | ≥ 500 |
| COc1cc(Nc2cnc3cnn([C@@H](C)C4COC4)c3n2)n[nH]1 [Example 71, (S)-N-(5-methoxy-1H-pyrazol-3-yl)-1-(1-(oxetan-3-yl)ethyl)-1H-pyrazolo[3,4-b]pyrazin-6-amine] | 10 to 20 | ≥ 500 |
| C[C@@H](C1COC1)n1ncc2ncc(Nc3cc(OC(F)F)[nH]n3)nc21 [Example 72, (S)-N-(5-(difluoromethoxy)-1H-pyrazol-3-yl)-1-(1-(oxetan-3-yl)ethyl)-1H-pyrazolo[3,4-b]pyrazin-6-amine] | ≤ 10 | ≥ 500 |
| COc1cc(Nc2cnc3cnn([C@@H](C)c4cncs4)c3n2)n[nH]1 [Example 74, (S)-N-(5-methoxy-1H-pyrazol-3-yl)-1-(1-(thiazol-5-yl)ethyl)-1H-pyrazolo[3,4-b]pyrazin-6-amine] | 20 to 30 | ≥ 500 |
| COc1cc(Nc2cnc3cnn(Cc4ccc(F)nc4)c3n2)n[nH]1 [Example 76, 1-((6-fluoropyridin-3-yl)methyl)-N-(5-methoxy-1H-pyrazol-3-yl)-1H-pyrazolo[3,4-b]pyrazin-6-amine] | 20 to 30 | ≥ 500 |
| C[C@@H](C1CCOCC1)n1ncc2ncc(Nc3cc(OC(F)F)[nH]n3)nc21 [Example 77, (S)-N-(5-(difluoromethoxy)-1H-pyrazol-3-yl)-1-(1-(tetrahydro-2H-pyran-4-yl)ethyl)-1H-pyrazolo[3,4-b]pyrazin-6-amine] | ≤ 10 | 100 to 500 |
| FC(F)Oc1cc(Nc2cnc3cnn([C@@H]4CCCOC4)c3n2)n[nH]1 [Example 78, (R)-N-(5-(difluoromethoxy)-1H-pyrazol-3-yl)-1-(tetrahydro-2H-pyran-3-yl)-1H-pyrazolo[3,4-b]pyrazin-6-amine] | 30 to 100 | ≥ 500 |
| CC(C)(C)n1ncc2ncc(Nc3cc(OC(F)F)[nH]n3)nc21 [Example 79, 1-(tert-butyl)-N-(5-(difluoromethoxy)-1H-pyrazol-3-yl)-1H-pyrazolo[3,4-b]pyrazin-6-amine] | 20 to 30 | ≥ 500 |
| FC(F)Oc1cc(Nc2cnc3cnn(CC4CC4)c3n2)n[nH]1 [Example 80, 1-(cyclopropylmethyl)-N-(5-(difluoromethoxy)-1H-pyrazol-3-yl)-1H-pyrazolo[3,4-b]pyrazin-6-amine] | ≤ 10 | ≥ 500 |
| FC(F)Oc1cc(Nc2cnc3cnn(C[C@H]4[C@@H]5COC[C@@H]54)c3n2)n[nH]1 [Example 81, 1-(((1R,5S,6s)-3-oxabicyclo[3.1.0]hexan-6-yl)methyl)-N-(5-(difluoromethoxy)-1H-pyrazol-3-yl)-1H-pyrazolo[3,4-b]pyrazin-6-amine] | ≤ 10 | ≥ 500 |
| C[C@H](c1ccccn1)n1ncc2ncc(Nc3cc(OC(F)F)[nH]n3)nc21 [Example 82, (R)-N-(5-(difluoromethoxy)-1H-pyrazol-3-yl)-1-(1-(pyridin-2-yl)ethyl)-1H-pyrazolo[3,4-b]pyrazin-6-amine] | 20 to 30 | ≥ 500 |
| FC(F)Oc1cc(Nc2cnc3cnn(C4CCOCC4)c3n2)n[nH]1 [Example 83, N-(5-(difluoromethoxy)-1H-pyrazol-3-yl)-1-(tetrahydro-2H-pyran-4-yl)-1H-pyrazolo[3,4-b]pyrazin-6-amine] | ≤ 10 | ≥ 500 |
| Cc1nn(Cc2cccnc2)c2nc(Nc3cc(OC(F)F)[nH]n3)cnc12 [Example 84, N-(5-(difluoromethoxy)-1H-pyrazol-3-yl)-3-methyl-1-(pyridin-3-ylmethyl)-1H-pyrazolo[3,4-b]pyrazin-6-amine] | ≤ 10 | ≥ 500 |
| FC(F)Oc1cc(Nc2cnc3cnn(CC4COC4)c3n2)n[nH]1 [Example 85, N-(5-(difluoromethoxy)-1H-pyrazol-3-yl)-1-(oxetan-3-ylmethyl)-1H-pyrazolo[3,4-b]pyrazin-6-amine] | 10 to 20 | ≥ 500 |
| FC(F)Oc1cc(Nc2cnc3cnn(C[C@@H]4COCCO4)c3n2)n[nH]1 [Example 88, (R)-1-((1,4-dioxan-2-yl)methyl)-N-(5-(difluoromethoxy)-1H-pyrazol-3-yl)-1H-pyrazolo[3,4-b]pyrazin-6-amine] | ≤ 10 | ≥ 500 |
| C[C@H](c1cccnc1)n1ncc2ncc(Nc3cc(OC(F)F)[nH]n3)nc21 [Example 91, (R)-N-(5-(difluoromethoxy)-1H-pyrazol-3-yl)-1-(1-(pyridin-3-yl)ethyl)-1H-pyrazolo[3,4-b]pyrazin-6-amine] | 20 to 30 | ≥ 500 |
| COc1cc(Nc2cnc3cnn(CC4CCOCC4)c3n2)n[nH]1 [Example 92, N-(5-methoxy-1H-pyrazol-3-yl)-1-((tetrahydro-2H-pyran-4-yl)methyl)-1H-pyrazolo[3,4-b]pyrazin-6-amine] | ≤ 10 | ≥ 500 |
| C[C@@H](c1ccccc1)n1ncc2ncc(Nc3cc(OC(F)F)[nH]n3)nc21 [Example 93, (S)-N-(5-(difluoromethoxy)-1H-pyrazol-3-yl)-1-(1-phenylethyl)-1H-pyrazolo[3,4-b]pyrazin-6-amine] | ≤ 10 | ≥ 500 |
| CC[C@@H](c1cccnc1)n1ncc2ncc(Nc3cc(OC(F)F)[nH]n3)nc21 [Example 94, (S)-N-(5-(difluoromethoxy)-1H-pyrazol-3-yl)-1-(1-(pyridin-3-yl)propyl)-1H-pyrazolo[3,4-b]pyrazin-6-amine] | ≤ 10 | ≥ 500 |
| Cc1ncccc1Cn1ncc2ncc(Nc3cc(OC(F)F)[nH]n3)nc21 [Example 95, N-(5-(difluoromethoxy)-1H-pyrazol-3-yl)-1-((2-methylpyridin-3-yl)methyl)-1H-pyrazolo[3,4-b]pyrazin-6-amine] | 20 to 30 | ≥ 500 |
| Cc1ccncc1Cn1ncc2ncc(Nc3cc(OC(F)F)[nH]n3)nc21 [Example 96, N-(5-(difluoromethoxy)-1H-pyrazol-3-yl)-1-((4-methylpyridin-3-yl)methyl)-1H-pyrazolo[3,4-b]pyrazin-6-amine] | 30 to 100 | ≥ 500 |
| CC[C@@H](c1ccccn1)n1ncc2ncc(Nc3cc(OC(F)F)[nH]n3)nc21 [Example 97, (S)-N-(5-(difluoromethoxy)-1H-pyrazol-3-yl)-1-(1-(pyridin-2-yl)propyl)-1H-pyrazolo[3,4-b]pyrazin-6-amine] | ≤ 10 | ≥ 500 |
